Reference: ChEMBL document CHEMBL1201862, “PubChem BioAssay data set” (2004)
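1) Cells in 96-well plates. 2) Compound, 48 h, 5 concentrations. 3) Linear interpolation between surrounding doses. 4) Unreached endpoint = highest concentration. Here, GI50 denotes the concentration required for 50% inhibition of growth.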 Calls of active or inactive are those of the source. No stated cut-off is given here; in the data, active = GI50 up to about 1.1 µM and inactive = higher.

Tests used:
Assay in all cases: DTP human tumour cell line panel, 48 h
RPMI-8226 = system: RPMI-8226
M14 = system: M14
ACHN = system: ACHN
MDA-MB-435 = system: MDA-MB-435
SNB-19 = system: SNB-19
786-0 = system: 786-0
NCI-H226 = system: NCI-H226
A498 = system: A498
IGROV-1 = system: IGROV-1
A549 = system: A549
CAKI-1 = system: CAKI-1
SK-MEL-2 = system: SK-MEL-2
NCI-H23 = system: NCI-H23
SK-MEL-5 = system: SK-MEL-5
SNB-75 = system: SNB-75
TK-10 = system: TK-10
T47D = system: T47D
UO-31 = system: UO-31

SMILES	GI50 (RPMI-8226)	GI50 (M14)	GI50 (ACHN)	GI50 (MDA-MB-435)	GI50 (SNB-19)	GI50 (786-0)	GI50 (NCI-H226)	GI50 (A498)	GI50 (IGROV-1)	GI50 (A549)	GI50 (CAKI-1)	GI50 (SK-MEL-2)	GI50 (NCI-H23)	GI50 (SK-MEL-5)	GI50 (SNB-75)	GI50 (TK-10)	GI50 (T47D)	GI50 (UO-31)
C=C1C(=O)OC2/C=C(\C)CC/C=C(\C)CC(OC(=O)/C(=C/CO)CO)[C@@H]12 (stereo partly drawn)	1.61 µM (inactive)	3.9 µM (inactive)	6.21 µM (inactive)	5.75 µM (inactive)	> 51.4 µM (inactive)	4.84 µM (inactive)	32.8 µM (inactive)	19 µM (inactive)	10.5 µM (inactive)	23.4 µM (inactive)	4.12 µM (inactive)	16.9 µM (inactive)	13.7 µM (inactive)	13 µM (inactive)	12.3 µM (inactive)	5.51 µM (inactive)	3.97 µM (inactive)	11.6 µM (inactive)
NC(=O)CN1C=CCC(C(N)=O)=C1 [CARICOTAMIDE]	> 100 µM (inactive)	> 100 µM (inactive)	> 100 µM (inactive)	> 100 µM (inactive)	> 100 µM (inactive)	> 100 µM (inactive)	> 100 µM (inactive)	> 100 µM (inactive)	> 100 µM (inactive)	> 100 µM (inactive)	> 100 µM (inactive)	> 100 µM (inactive)	> 100 µM (inactive)	> 100 µM (inactive)	> 100 µM (inactive)		> 100 µM (inactive)	> 100 µM (inactive)
CC(=O)/N=C1\N/C(=C\c2ccc(Cl)cc2)C(=O)N1/C=C1\C(=O)Oc2ccccc2C1=O	> 100 µM (inactive)	> 100 µM (inactive)	> 100 µM (inactive)	51.2 µM (inactive)	> 100 µM (inactive)	> 100 µM (inactive)	> 100 µM (inactive)	10.8 µM (inactive)	> 100 µM (inactive)	> 100 µM (inactive)	> 100 µM (inactive)	> 100 µM (inactive)	> 100 µM (inactive)	47.2 µM (inactive)	27.5 µM (inactive)		> 100 µM (inactive)	
CC(C)C(/C=C/c1ccc(Cl)cc1)=N\NC(=S)NN	11.7 µM (inactive)	18.9 µM (inactive)	10.6 µM (inactive)	10.7 µM (inactive)	76.4 µM (inactive)	20.5 µM (inactive)	10.4 µM (inactive)	23.8 µM (inactive)	20.2 µM (inactive)	31.6 µM (inactive)	22.4 µM (inactive)	7.03 µM (inactive)	20 µM (inactive)	33 µM (inactive)	22.9 µM (inactive)	8.87 µM (inactive)	6.59 µM (inactive)	17.9 µM (inactive)
O=C(O)CCSCc1ccc(I)cc1	> 100 µM (inactive)	> 100 µM (inactive)	> 100 µM (inactive)	> 100 µM (inactive)	> 100 µM (inactive)	> 100 µM (inactive)	> 100 µM (inactive)	> 100 µM (inactive)	> 100 µM (inactive)	> 100 µM (inactive)	> 100 µM (inactive)	> 100 µM (inactive)	> 100 µM (inactive)	> 100 µM (inactive)	72.4 µM (inactive)	> 100 µM (inactive)	> 100 µM (inactive)	> 100 µM (inactive)
O=C(O)C1C2c3ccccc3C(c3ccccc32)C1C(=O)NCC1CC1 (stereo not drawn)	24.7 µM (inactive)	61.9 µM (inactive)	78 µM (inactive)	51.2 µM (inactive)	> 100 µM (inactive)	> 100 µM (inactive)	60.4 µM (inactive)	78 µM (inactive)	72.6 µM (inactive)	62.2 µM (inactive)	> 100 µM (inactive)	91.6 µM (inactive)	47.9 µM (inactive)	66.8 µM (inactive)	84.5 µM (inactive)	32.4 µM (inactive)	56.8 µM (inactive)	71.4 µM (inactive)
CCCn1cnc2c(/N=N/O)ncnc21	> 100 µM (inactive)	> 100 µM (inactive)	> 100 µM (inactive)	> 100 µM (inactive)	> 100 µM (inactive)	> 100 µM (inactive)	> 100 µM (inactive)	> 100 µM (inactive)	> 100 µM (inactive)		> 100 µM (inactive)		> 100 µM (inactive)	> 100 µM (inactive)	> 100 µM (inactive)	> 100 µM (inactive)	> 100 µM (inactive)	> 100 µM (inactive)
CCOC(=O)C(Cl)(NC(=O)c1ccc(F)cc1)C(F)(F)F (stereo not drawn)	> 100 µM (inactive)	> 100 µM (inactive)	> 100 µM (inactive)	> 100 µM (inactive)	> 100 µM (inactive)	> 100 µM (inactive)	> 100 µM (inactive)	> 100 µM (inactive)	> 100 µM (inactive)	> 100 µM (inactive)	> 100 µM (inactive)	> 100 µM (inactive)	> 100 µM (inactive)	> 100 µM (inactive)	77.3 µM (inactive)	> 100 µM (inactive)	> 100 µM (inactive)	> 100 µM (inactive)
Cc1ccc(C(=O)C(Cl)C(Cl)c2ccc(C)cc2)cc1 (stereo not drawn)	1.56 µM (inactive)	4.71 µM (inactive)	1.72 µM (inactive)	2.97 µM (inactive)	8.2 µM (inactive)	2.03 µM (inactive)	5.04 µM (inactive)	16.3 µM (inactive)	2.58 µM (inactive)	21.9 µM (inactive)	2.59 µM (inactive)	16.3 µM (inactive)	9.38 µM (inactive)	2.34 µM (inactive)	8.22 µM (inactive)	2.99 µM (inactive)	2.08 µM (inactive)	2.06 µM (inactive)
C/C=C1/CN2CCc3c([nH]c4ccccc34)[C@@H]2C[C@@H]1Cc1nccc2c1[nH]c1cc(O)ccc12		2.16 µM (inactive)	2.29 µM (inactive)	1.9 µM (inactive)	2.26 µM (inactive)	1.61 µM (inactive)	3.85 µM (inactive)	1.93 µM (inactive)		2.23 µM (inactive)	1.73 µM (inactive)	2.05 µM (inactive)	2.1 µM (inactive)	1.57 µM (inactive)	1.64 µM (inactive)	1.95 µM (inactive)	2.14 µM (inactive)	1.99 µM (inactive)
CCOC(=O)NC(Nc1ncn(C(NC(=O)OCC)(C(F)(F)F)C(F)(F)F)n1)(C(F)(F)F)C(F)(F)F	> 100 µM (inactive)	> 100 µM (inactive)	> 100 µM (inactive)	> 100 µM (inactive)	> 100 µM (inactive)	> 100 µM (inactive)	> 100 µM (inactive)	> 100 µM (inactive)	> 100 µM (inactive)	> 100 µM (inactive)	> 100 µM (inactive)		> 100 µM (inactive)	> 100 µM (inactive)	> 100 µM (inactive)	> 100 µM (inactive)	49 µM (inactive)	12.2 µM (inactive)
O=C(Cc1ccccc1)N/N=C1\C(=O)Nc2ccccc21		> 100 µM (inactive)	> 100 µM (inactive)	> 100 µM (inactive)	> 100 µM (inactive)	80.5 µM (inactive)	71.9 µM (inactive)	0.229 µM (active)	> 100 µM (inactive)	> 100 µM (inactive)		> 100 µM (inactive)	95.5 µM (inactive)	95.9 µM (inactive)	37.2 µM (inactive)	> 100 µM (inactive)	63.2 µM (inactive)	48.2 µM (inactive)
O=C(/C=C/c1ccc2c(c1)OCO2)CC(=O)C(=O)c1c[nH]c2ccccc12	35.4 µM (inactive)	63.2 µM (inactive)	44.2 µM (inactive)	24.3 µM (inactive)	46.2 µM (inactive)	41.9 µM (inactive)		65.5 µM (inactive)	47.8 µM (inactive)	35.3 µM (inactive)	39.5 µM (inactive)	> 100 µM (inactive)	34.2 µM (inactive)	58.3 µM (inactive)	29.3 µM (inactive)	38.4 µM (inactive)	29.4 µM (inactive)	24.2 µM (inactive)
O=C(CN1C(=O)CC(c2ccccc2)(c2ccccc2)C1=O)N1CCN(CCO)CC1	> 100 µM (inactive)	> 100 µM (inactive)	> 100 µM (inactive)	> 100 µM (inactive)	> 100 µM (inactive)	> 100 µM (inactive)		> 100 µM (inactive)	> 100 µM (inactive)	> 100 µM (inactive)	> 100 µM (inactive)	> 100 µM (inactive)	> 100 µM (inactive)	> 100 µM (inactive)	> 100 µM (inactive)	> 100 µM (inactive)	> 100 µM (inactive)	> 100 µM (inactive)
CC12CC3OC(=O)C1COC14OC5(C2C1=O)C(O)(CCC1C4CC2OC24CC=CC(=O)C14C)C(=O)OC35C (stereo not drawn)	19.2 µM (inactive)	17.2 µM (inactive)	16.4 µM (inactive)	13.6 µM (inactive)	20 µM (inactive)	13.2 µM (inactive)		18.8 µM (inactive)	18.4 µM (inactive)	27 µM (inactive)	13 µM (inactive)	14.5 µM (inactive)	15.4 µM (inactive)	3.88 µM (inactive)	76.7 µM (inactive)	13.6 µM (inactive)	15.7 µM (inactive)	16.9 µM (inactive)
Nc1nc(N)nc(-c2cnc3ccccc3c2)n1		> 100 µM (inactive)	> 100 µM (inactive)	> 100 µM (inactive)	> 100 µM (inactive)	> 100 µM (inactive)	> 100 µM (inactive)	> 100 µM (inactive)	58.6 µM (inactive)	> 100 µM (inactive)	> 100 µM (inactive)	> 100 µM (inactive)	> 100 µM (inactive)		85.7 µM (inactive)	88.9 µM (inactive)	> 100 µM (inactive)	> 100 µM (inactive)
